# Test results reported in PubChem BioAssay AID2060900 (Molecular Pharmacology Branch, DTP, NCI, 2025).
# Test system: 521955-158-R2-J5-PDC complex spheroids, viability
# Assay: Anticancer human tumor 521955-158-R2-J5-PDC patient-derived pancreatic carcinoma cell line growth inhibition [RAS]
# Conditions: for IC50: curve of first compound; for viability, T/C: stronger effect = lower value
# Outline: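 Agents were tested in combination matrices in half-log decrements from a top concentration at or near clinical Cmax (10 microM if undetermined). Targets were multi-cell spheroids of tumour lines plus HUVEC and MSC stromal cells.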
# [1] = second compound 0.0316 µM, first compound 0.000949 µM
# [2] = second compound 0.0316 µM, first compound 0.003 µM
# [3] = second compound 0.0316 µM, first compound 0.00949 µM
# [4] = second compound 0.0316 µM, first compound 0.03 µM
# [5] = second compound 0.0316 µM, first compound 0.0949 µM
# [6] = second compound 0.0316 µM, first compound 0.3 µM
# [7] = second compound 0.1 µM, first compound 0.000949 µM
# [8] = second compound 0.1 µM, first compound 0.003 µM
# [9] = second compound 0.1 µM, first compound 0.00949 µM
# [10] = second compound 0.1 µM, first compound 0.03 µM
# [11] = second compound 0.1 µM, first compound 0.0949 µM
# [12] = second compound 0.1 µM, first compound 0.3 µM
# [13] = second compound 0.316 µM, first compound 0.000949 µM
# [14] = second compound 0.316 µM, first compound 0.003 µM
# [15] = second compound 0.316 µM, first compound 0.00949 µM
# [16] = second compound 0.316 µM, first compound 0.03 µM
# [17] = second compound 0.316 µM, first compound 0.0949 µM
# [18] = second compound 0.316 µM, first compound 0.3 µM
# [19] = second compound 1 µM, first compound 0.000949 µM
# [20] = second compound 1 µM, first compound 0.003 µM
# [21] = second compound 1 µM, first compound 0.00949 µM
# [22] = second compound 1 µM, first compound 0.03 µM
# [23] = second compound 1 µM, first compound 0.0949 µM
# [24] = second compound 1 µM, first compound 0.3 µM
# [25] = second compound 3.16 µM, first compound 0.000949 µM
# [26] = second compound 3.16 µM, first compound 0.003 µM
# [27] = second compound 3.16 µM, first compound 0.00949 µM
# [28] = second compound 3.16 µM, first compound 0.03 µM
# [29] = second compound 3.16 µM, first compound 0.0949 µM
# [30] = second compound 3.16 µM, first compound 0.3 µM
# [31] = second compound 10 µM, first compound 0.000949 µM
# [32] = second compound 10 µM, first compound 0.003 µM
# [33] = second compound 10 µM, first compound 0.00949 µM
# [34] = second compound 10 µM, first compound 0.03 µM
# [35] = second compound 10 µM, first compound 0.0949 µM
# [36] = second compound 10 µM, first compound 0.3 µM
# 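Also: compound exposure lasted seven days before the viability read.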
# 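For viability, T/C in this document: spheroids also contain HUVEC endothelial cells and mesenchymal stem cells as stroma.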
compound,measurement,setting,value
C=CC(=O)N1CCN(c2nc(OCC3CCCN3C)nc3c(F)c(-c4nc(N)cc(C)c4C(F)(F)F)c(Cl)cc23)C(C)C1 (stereo unspecified) + C#Cc1c(F)ccc2cc(O)cc(-c3ncc4c(N5CC6CCC(C5)N6)nc(OCC56CCCN5CC(F)C6)nc4c3F)c12,IC50,second compound 0.0316 µM,> 1000 nM
same,IC50,second compound 0.1 µM,> 1000 nM
same,IC50,second compound 0.316 µM,> 1000 nM
same,IC50,second compound 1 µM,> 1000 nM
same,IC50,second compound 3.16 µM,< 3.16 nM
same,IC50,second compound 10 µM,< 3.16 nM
same,"viability, T/C","second compound 0.0316 µM, first compound 0.00316 µM",61.3%
same,"viability, T/C","second compound 0.0316 µM, first compound 0.01 µM",63.1%
same,"viability, T/C","second compound 0.0316 µM, first compound 0.0316 µM",74.1%
same,"viability, T/C","second compound 0.0316 µM, first compound 0.1 µM",57.2%
same,"viability, T/C","second compound 0.0316 µM, first compound 0.316 µM",55.6%
same,"viability, T/C","second compound 0.0316 µM, first compound 1 µM",71.8%
same,"viability, T/C","second compound 0.1 µM, first compound 0.00316 µM",55.9%
same,"viability, T/C","second compound 0.1 µM, first compound 0.01 µM",64.8%
same,"viability, T/C","second compound 0.1 µM, first compound 0.0316 µM",58.7%
same,"viability, T/C","second compound 0.1 µM, first compound 0.1 µM",48.8%
same,"viability, T/C","second compound 0.1 µM, first compound 0.316 µM",56.6%
same,"viability, T/C","second compound 0.1 µM, first compound 1 µM",61.8%
same,"viability, T/C","second compound 0.316 µM, first compound 0.00316 µM",53.2%
same,"viability, T/C","second compound 0.316 µM, first compound 0.01 µM",56.8%
same,"viability, T/C","second compound 0.316 µM, first compound 0.0316 µM",58.5%
same,"viability, T/C","second compound 0.316 µM, first compound 0.1 µM",54.8%
same,"viability, T/C","second compound 0.316 µM, first compound 0.316 µM",52.8%
same,"viability, T/C","second compound 0.316 µM, first compound 1 µM",52.1%
same,"viability, T/C","second compound 1 µM, first compound 0.00316 µM",48%
same,"viability, T/C","second compound 1 µM, first compound 0.01 µM",72.6%
same,"viability, T/C","second compound 1 µM, first compound 0.0316 µM",47.1%
same,"viability, T/C","second compound 1 µM, first compound 0.1 µM",60.7%
same,"viability, T/C","second compound 1 µM, first compound 0.316 µM",53.2%
same,"viability, T/C","second compound 1 µM, first compound 1 µM",59.2%
same,"viability, T/C","second compound 3.16 µM, first compound 0.00316 µM",42.4%
same,"viability, T/C","second compound 3.16 µM, first compound 0.01 µM",52.1%
same,"viability, T/C","second compound 3.16 µM, first compound 0.0316 µM",54.8%
same,"viability, T/C","second compound 3.16 µM, first compound 0.1 µM",56.9%
same,"viability, T/C","second compound 3.16 µM, first compound 0.316 µM",50.6%
same,"viability, T/C","second compound 3.16 µM, first compound 1 µM",47.2%
same,"viability, T/C","second compound 10 µM, first compound 0.00316 µM",40%
same,"viability, T/C","second compound 10 µM, first compound 0.01 µM",56.9%
same,"viability, T/C","second compound 10 µM, first compound 0.0316 µM",38.3%
same,"viability, T/C","second compound 10 µM, first compound 0.1 µM",43.6%
same,"viability, T/C","second compound 10 µM, first compound 0.316 µM",39.3%
same,"viability, T/C","second compound 10 µM, first compound 1 µM",29.8%
CC1(C)CCC(Nc2ncc(C(F)(F)F)c(-c3c[nH]c4c(P(C)(C)=O)c(C#N)ccc34)n2)CN1 (stereo unspecified) + C#Cc1c(F)ccc2cc(O)cc(-c3ncc4c(N5CC6CCC(C5)N6)nc(OCC56CCCN5CC(F)C6)nc4c3F)c12,IC50,second compound 0.0316 µM,< 0.949 nM
same,IC50,second compound 0.1 µM,< 0.949 nM
same,IC50,second compound 0.316 µM,< 0.949 nM
same,IC50,second compound 1 µM,< 0.949 nM
same,IC50,second compound 3.16 µM,< 0.949 nM
same,IC50,second compound 10 µM,< 0.949 nM
same,"viability, T/C",[1],43.7%
same,"viability, T/C",[2],38.4%
same,"viability, T/C",[3],37.1%
same,"viability, T/C",[4],31.4%
same,"viability, T/C",[5],43.7%
same,"viability, T/C",[6],41.9%
same,"viability, T/C",[7],43.5%
same,"viability, T/C",[8],40.8%
same,"viability, T/C",[9],33%
same,"viability, T/C",[10],29.6%
same,"viability, T/C",[11],39.7%
same,"viability, T/C",[12],33.8%
same,"viability, T/C",[13],40.4%
same,"viability, T/C",[14],37.5%
same,"viability, T/C",[15],29.9%
same,"viability, T/C",[16],29.4%
same,"viability, T/C",[17],30.3%
same,"viability, T/C",[18],29.2%
same,"viability, T/C",[19],38.5%
same,"viability, T/C",[20],31.8%
same,"viability, T/C",[21],25.5%
same,"viability, T/C",[22],26.8%
same,"viability, T/C",[23],24.3%
same,"viability, T/C",[24],25%
same,"viability, T/C",[25],33.5%
same,"viability, T/C",[26],27.8%
same,"viability, T/C",[27],25.1%
same,"viability, T/C",[28],25%
same,"viability, T/C",[29],21.1%
same,"viability, T/C",[30],24.8%
same,"viability, T/C",[31],29.7%
same,"viability, T/C",[32],25.9%
same,"viability, T/C",[33],20.2%
same,"viability, T/C",[34],21.2%
same,"viability, T/C",[35],21.7%
same,"viability, T/C",[36],20.1%
CCc1c2c(nc3ccc(O)cc13)-c1cc3c(c(=O)n1C2)COC(=O)[C@]3(O)CC + C#Cc1c(F)ccc2cc(O)cc(-c3ncc4c(N5CC6CCC(C5)N6)nc(OCC56CCCN5CC(F)C6)nc4c3F)c12,IC50,second compound 0.0316 µM,2.36 nM
same,IC50,second compound 0.1 µM,< 0.949 nM
same,IC50,second compound 0.316 µM,1.13 nM
same,IC50,second compound 1 µM,< 0.949 nM
same,IC50,second compound 3.16 µM,< 0.949 nM
same,IC50,second compound 10 µM,< 0.949 nM
same,"viability, T/C",[1],68.1%
same,"viability, T/C",[2],40.9%
same,"viability, T/C",[3],35.7%
same,"viability, T/C",[4],20.7%
same,"viability, T/C",[5],15.3%
same,"viability, T/C",[6],9.62%
same,"viability, T/C",[7],43.4%
same,"viability, T/C",[8],34.2%
same,"viability, T/C",[9],26.9%
same,"viability, T/C",[10],22.5%
same,"viability, T/C",[11],11.4%
same,"viability, T/C",[12],12.5%
same,"viability, T/C",[13],51.9%
same,"viability, T/C",[14],39.5%
same,"viability, T/C",[15],23.8%
same,"viability, T/C",[16],18.3%
same,"viability, T/C",[17],14.3%
same,"viability, T/C",[18],8.89%
same,"viability, T/C",[19],41.1%
same,"viability, T/C",[20],36.1%
same,"viability, T/C",[21],18.4%
same,"viability, T/C",[22],16.6%
same,"viability, T/C",[23],11.3%
same,"viability, T/C",[24],10.6%
same,"viability, T/C",[25],41.4%
same,"viability, T/C",[26],34.6%
same,"viability, T/C",[27],24.7%
same,"viability, T/C",[28],15.8%
same,"viability, T/C",[29],12.8%
same,"viability, T/C",[30],5.72%
same,"viability, T/C",[31],30%
same,"viability, T/C",[32],23%
same,"viability, T/C",[33],16.8%
same,"viability, T/C",[34],15.5%
same,"viability, T/C",[35],11.2%
same,"viability, T/C",[36],11.8%
